What was measured:
[1] = system: SW620 (MLH1+/+) cells; test: MUT:WT* ratio of MLH1 loss-of-function variants without or with 6-thioguanine; assay type: cell-based, human; details: E448STOP, Q537STOP; 2 μM 6-thioguanine until Day 11
Description: Data represent ratios normalized to the value at Day 2 and are means of 3 independent experiments +/−SD. Two-tailed paired t-test were used to calculate the significance in all cases. NS=not significant. ** indicates p<0.01. *** indicates p<0.001. The figure and results are further described in the Examples.
Cultures of human colon cancer SW620 (MLH1+/+) cells were nucleofected with SpCas9 protein and synthetic gRNA/tracrRNA targeting genomic sites in MLH1 overlapping the sites to be mutated along with an oligonucleotide comprising the mutation of interest (MUT), which was as a known loss-of-function variant (E448STOP or Q537STOP), and an oligonucleotide comprising a corresponding synonymous mutation (WT*). At Day 2 after nucleofection, an aliquot of the cell culture was analysed by PCR amplification of the genomic target site and NGS of the PCR product to determine the ratio of MUT to WT* alleles in the cell population. Thereafter, cells were split in two cultures, and cultured in the absence (−) or presence (+) of 2 μM 6-thioguanine until Day 11, where after the mutation analysis was repeated for each culture.

[2] = system: H358 cells xenografted into nude mice; test: H358 xenograft in nude mice treated with vehicle or AMG 510: tumor volume and 12D versus 12C* ratio; assay type: in vivo; details: treated once per day from two weeks after xenografting, versus vehicle
Description: (A) A culture of human lung cancer H358 cells was nucleofected with SpCas9 protein and synthetic gRNA/tracrRNA targeting the oncogenic 12C mutation in KRAS present in these cells along with an oligonucleotide comprising the mutation of interest, which was another oncogenic KRAS mutation (12D), and an oligonucleotide comprising a synonymous mutation ([…]). At Day 2 after transfection, an aliquot of the cell culture was analysed by PCR amplification of the genomic target site and NGS of the PCR product to determine the ratio of 12D versus 12C* alleles in the cell population. […] (B) Determination of tumor volumes over time. (C) Representative mice photographed on day 40. […]
A culture of human lung cancer H358 cells was nucleofected with SpCas9 protein and synthetic gRNA/tracrRNA targeting the oncogenic 12C mutation in KRAS present in these cells along with an oligonucleotide comprising the mutation of interest, which was another oncogenic KRAS mutation (12D), and an oligonucleotide comprising a synonymous mutation (12C*). At Day 2 after transfection, an aliquot of the cell culture was analysed by PCR amplification of the genomic target site and NGS of the PCR product to determine the ratio of 12D versus 12C* alleles in the cell population. […] (B) Tumor volumes were determined over time and, (C) representative mice photographed on day 40.

[3] = system: Hep3B cells; test: FGFR4 550M to WT* ratio in cells cultured without or with Fisogatinib; assay type: cell-based, human; details: 0.72 μM Fisogatinib until Day 16; ratios normalized to Day 2
Description: Data represent ratios normalized to the value at Day 2 and are means of 3 independent experiments +/−SD. Two-tailed paired t-tests were used to calculate the significance in all cases. NS=not significant. ** indicates p<0.01. The figure and results are further described in the Examples.
Cultures of human liver cancer Hep3B cells, which harbor FGF19 focal amplification, were nucleofected with SpCas9 protein and synthetic gRNA/tracrRNA targeting a genomic site overlapping the site to be mutated along with an oligonucleotide comprising the mutation of interest (V550M) in the Fisogatinib-binding site of FGFR4 and an oligonucleotide comprising a synonymous mutation (WT*). At Day 2 after nucleofection, an aliquot of the cell culture was analysed by PCR amplification of the genomic target site and NGS of the PCR product to determine the ratio of 550M to WT* alleles in the cell population. Thereafter, cells were split in two cultures, and cultured in the absence (−) or presence (+) of 0.72 μM Fisogatinib until Day 16, whereafter the mutation analysis was repeated on each culture. […] Such applications of the method are important for clinical management as well as for drug development in the pharmaceutical industry.

[4] = system: MCF10A-BRCA2+/− cells; test: MUT:WT* ratio of BRCA2 variants in cells cultured without or with PARP inhibitor; assay type: cell-based, human; details: 2 nM Talazoparib until Day 12, ratios normalized to Day 2
Description: At Day 2 after transfection, an aliquot of each culture was analysed by PCR amplification of the genomic target site and NGS of the PCR product to determine the ratio of MUT to WT* alleles in the cell population. Thereafter, cells were cultured in the absence or presence of 2 nM Talazoparib (a PARP inhibitor) until Day 12, whereafter the mutation analysis was repeated. Data represent ratios
normalized to the value at Day 2 and are means of 3 independent experiments +/−SD. Two-tailed unpaired t-tests were used to calculate the significance in all cases. NS=not significant. ** indicates p<0.01. **** indicates p<0.0001.
BRCA2 loss-of-function mutations sensitize cells to inhibitors of PARP, which are used in clinical trials/in the clinic as a synthetic lethal personalized therapy for cancer patients with BRCA inactivating mutations. We analysed one neutral BRCA2 mutation (D946V) and two loss-of-function BRCA2 mutations (I2627N, Y2660C) in breast epithelial MCF10A-BRCA2+/− cells cultured in the absence or presence of PARP inhibitor. […] Furthermore, the method will thereby also be useful for the purpose of drug development, drug testing and stratification of cancer patients in clinical trials with new drugs.

[5] = system: MCF10A (ATM+/+) cells; test: MUT:WT* ratio of ATM loss-of-function variants without or with Talazoparib; assay type: cell-based, human; details: R23STOP, Q218STOP, E365STOP; 2 nM Talazoparib until Day 12
Description: Data represent ratios normalized to the value at Day 2 and show a representative experiment. The figure and results are further described in the Examples.
Cultures of human breast epithelial MCF10A (ATM+/+) cells expressing SpCas9 were transfected with synthetic gRNA/tracrRNA targeting genomic sites in ATM overlapping the sites to be mutated along with an oligonucleotide comprising the mutation of interest (MUT), which was as known loss-of-function variants (R23STOP, Q218STOP or E365STOP), and an oligonucleotide comprising a corresponding synonymous mutation (WT*). At Day 2 after transfection, an aliquot of each culture was analysed by PCR amplification of the genomic target site and NGS of the PCR product to determine the ratio of MUT to WT* alleles in the cell population. Thereafter, cells were cultured in the absence (−) or presence (+) of 2 nM Talazoparib (a PARP inhibitor) until Day 12, where after the mutation analysis was repeated.

Nc1nc2nc[nH]c2c(=S)[nH]1 [6-thioguanine]
ability of MLH1 to elicit apoptosis in response to 6-thioguanine in cells with loss-of-function mutations [1]: disabled

C=CC(=O)N1CCN(c2nc(=O)n(-c3c(C)ccnc3C(C)C)c3nc(-c4c(O)cccc4F)c(F)cc23)[C@@H](C)C1 [AMG 510]
bulk tumor size (tumor volumes over time) [2]: greatly reduced

C=CC(=O)N[C@H]1CCOC[C@H]1Nc1ncc2cc(-c3c(Cl)c(OC)cc(OC)c3Cl)ccc2n1 [Fisogatinib]
selection of cells harboring the FGFR4-V550M mutation relative to WT* (resistance) [3]: strongly selected for

Cn1ncnc1[C@H]1c2n[nH]c(=O)c3cc(F)cc(c23)N[C@@H]1c1ccc(F)cc1 [Talazoparib]
effect on cells with the neutral BRCA2 mutation (MUT:WT* ratio) ([4]; D946V): no effect | cell proliferation and/or survival of cells with the loss-of-function BRCA2 mutations ([4]; I2627N, Y2660C): greatly decreased | sensitivity of cells with loss-of-function ATM mutations to PARP inhibitor killing [5]: sensitized them to PARP inhibitor killing

Source: US20230407377A1, “CRISPR/CAS SCREENING SYSTEM MATERIALS AND METHODS” (University of Copenhagen, priority 2020, published 2023)
